Results reported in patent US20090042987A1, “TREATMENT OF NEUROPATHIC PAIN” (priority 2007, published 2009).
“Also recorded” adds a separate entry of the source.

Test system: drug-naïve STZ-diabetic rats
Experiment: von Frey paw withdrawal thresholds, drug-naïve STZ-diabetic rats, Example 2
Format: in vivo, rat
Details: for Mean (±SEM) AUC (area under the normalized PWT versus time curve) / Mean (±SEM) Peak response (PWT) / Mean (±SEM) % MPR at peak: after 7th consecutive twice-daily dose; for Mean (±SEM) % MPR at peak: 100% MPR = full reversal of tactile allodynia; for Mean duration of action / Time of peak anti-allodynia post-dosing: 7th twice-daily dose
Method: Experimental Animals Ethical approval for this study was obtained from the Animal Experimentation Ethics Committee of The University of Queensland. Adult male Sprague-Dawley (SD) rats (222±4 g) were used for this study. Rats were housed in a temperature controlled room (21+2.0 C) with a 12/12 hour light/dark cycle. Food and water were available ad libitum. Initiation of drug administration occurred at 8-11 weeks post-STZ administration for rats in Experiment 1 (PCT-001) and at 10-12 weeks post-STZ administration for rats in Experiment 2 (PCT-007).
Test Article Tranilast was supplied by the Sponsor and stored at −4° C. until use. Gabapentin (100 mg/kg, dissolved in water for injection) was utilized as the positive control for this study.
Test Article and Vehicle Preparation Test article formulations were prepared freshly on the day of administration by weighing the appropriate amount of bulk powder and suspending it in the required volume of vehicle. Carboxymethyl cellulose ((CMC) 0.5% in water for injection) was utilized as the vehicle for this study.
Test Article Administration. […] The maximum oral gavage volume administered in this study was […]. 4.4
STZ-Diabetic Rat Model of Painful Diabetic Neuropathy. Painful diabetic neuropathy is a common long-term complication of diabetes in humans that develops as a result of a sustained biochemical nerve injury. […] Following the induction of diabetes with intravenous STZ at 70-80 mg/kg, it generally takes 6-8 wks for tactile allodynia, the defining symptom of PDN, to fully develop in both rat hindpaws.
Induction of STZ-Diabetes in Rats. On day 0, rats were anaesthetized with 3% isoflurane:97% O2 and a short polyethylene cannula (0.5 mm ID, 0.8 mm OD) was inserted into the jugular vein to facilitate the intravenous (i.v.) administration of a single dose of streptozotocin (STZ: 70-80 mg/kg). After STZ injection, the cannula was removed and the jugular vein was tied off and the wound was closed. Rats received subcutaneous benzylpenicillin (60 mg) prior to surgery to prevent infection and were kept warm during surgical recovery. Rats were housed singly prior to further experimentation and were monitored daily from the time of STZ administration with regard to general health and well-being.
Von Frey Assessment of Paw Withdrawal Thresholds. Calibrated von Frey filaments were used to determine the lowest mechanical threshold required to evoke a brisk paw withdrawal reflex in the rat hindpaws. Briefly, rats were transferred individually to wire mesh testing cages (20 cm×20 cm×20 cm) and allowed to acclimatize for approximately 10-20 min prior to von Frey testing. Commencing with the von Frey filament that produced the 6 g force, the filament was applied to the plantar surface of the hindpaw until the filament buckled slightly. Absence of a response after 3 s prompted use of the next filament of increasing weight. A withdrawal response within 3 s prompted use of the next filament of decreasing weight. Filaments used produced buckling weights of 2, 4, 6, 8, 10, 12, 14, 16, 18 and 20 g. […] Tactile allodynia is regarded as being fully developed when von Frey PWTs in the injured hindpaws are <6 g.
Restoring von-Frey PWTs in the hindpaws from <6 g to pre-STZ surgery levels (12±2 g) is the treatment goal representing full reversal of tactile allodynia. If drug treatment increases PWTs above pre-surgical baseline values (i.e. >12±2 g), such a response is classified as antinociception. Before administration of STZ, baseline von Frey measurements were assessed. Following STZ administration, baseline PWTs were assessed in the hindpaws at week 8-11 to confirm the development of diabetes-induced tactile allodynia.
Dose-Response Curve for Tranilast in Drug-Naive STZ-Diabetic Rats. […]

[1] = tranilast 100, 200, 300 and 400 mg/kg oral, 7 consecutive twice-daily doses

COc1ccc(/C=C/C(=O)Nc2ccccc2C(=O)O)cc1OC [Tranilast, 2-[[3-(3,4-dimethoxyphenyl)-1-oxo-2-propenyl]amino]benzoic acid]
Mean (±SEM) von Frey Paw Withdrawal threshold assessed prior to dose (tranilast 100 mg/kg oral twice-daily, prior to dose 1): 4.8 ± 0.5 g
Mean (±SEM) von Frey Paw Withdrawal threshold assessed prior to dose (tranilast 100 mg/kg oral twice-daily, prior to dose 3): 4.4 ± 0.7 g
Mean (±SEM) von Frey Paw Withdrawal threshold assessed prior to dose (tranilast 100 mg/kg oral twice-daily, prior to dose 5): 5.1 ± 0.5 g
Mean (±SEM) von Frey Paw Withdrawal threshold assessed prior to dose (tranilast 100 mg/kg oral twice-daily, prior to dose 7): 5.3 ± 0.5 g
Mean (±SEM) von Frey Paw Withdrawal threshold following the 7th consecutive dose (tranilast 100 mg/kg oral twice-daily, time 0 h (pre-dose)): 5.3 ± 0.4 g
Mean (±SEM) von Frey Paw Withdrawal threshold following the 7th consecutive dose (tranilast 100 mg/kg oral twice-daily, time 0.15 h): 6.0 ± 0 g
Mean (±SEM) von Frey Paw Withdrawal threshold following the 7th consecutive dose (tranilast 100 mg/kg oral twice-daily, time 0.5 h): 7.25 ± 0.5 g
Mean (±SEM) von Frey Paw Withdrawal threshold following the 7th consecutive dose (tranilast 100 mg/kg oral twice-daily, time 0.75 h): 7.75 ± 0.25 g
Mean (±SEM) von Frey Paw Withdrawal threshold following the 7th consecutive dose (tranilast 100 mg/kg oral twice-daily, time 1 h): 8.25 ± 0.5 g
Mean (±SEM) von Frey Paw Withdrawal threshold following the 7th consecutive dose (tranilast 100 mg/kg oral twice-daily, time 1.25 h): 8.0 ± 0 g
Mean (±SEM) von Frey Paw Withdrawal threshold following the 7th consecutive dose (tranilast 100 mg/kg oral twice-daily, time 1.5 h): 6.75 ± 0.5 g
Mean (±SEM) von Frey Paw Withdrawal threshold following the 7th consecutive dose (tranilast 100 mg/kg oral twice-daily, time 2 h): 7.0 ± 0.6 g
Mean (±SEM) von Frey Paw Withdrawal threshold following the 7th consecutive dose (tranilast 100 mg/kg oral twice-daily, time 3 h): 6.25 ± 0.3 g
Mean (±SEM) AUC (area under the normalized PWT versus time curve) (tranilast 100 mg/kg oral): 4.98 ± 1.7
Mean (±SEM) Peak response (PWT) (tranilast 100 mg/kg oral): 8.25 ± 0.5
Mean (±SEM) % MPR at peak (tranilast 100 mg/kg oral): 53.2 ± 3.3%
Mean (±SEM) von Frey Paw Withdrawal threshold assessed prior to dose (tranilast 200 mg/kg oral twice-daily, prior to dose 1): 4.9 ± 0.6 g
Mean (±SEM) von Frey Paw Withdrawal threshold assessed prior to dose (tranilast 200 mg/kg oral twice-daily, prior to dose 3): 5.2 ± 0.6 g
Mean (±SEM) von Frey Paw Withdrawal threshold assessed prior to dose (tranilast 200 mg/kg oral twice-daily, prior to dose 5): 5.2 ± 0.5 g
Mean (±SEM) von Frey Paw Withdrawal threshold assessed prior to dose (tranilast 200 mg/kg oral twice-daily, prior to dose 7): 5.2 ± 0.5 g
Mean (±SEM) von Frey Paw Withdrawal threshold following the 7th consecutive dose (tranilast 200 mg/kg oral twice-daily, time 0 h (pre-dose)): 5.2 ± 0.4 g
Mean (±SEM) von Frey Paw Withdrawal threshold following the 7th consecutive dose (tranilast 200 mg/kg oral twice-daily, time 0.15 h): 5.75 ± 0.7 g
Mean (±SEM) von Frey Paw Withdrawal threshold following the 7th consecutive dose (tranilast 200 mg/kg oral twice-daily, time 0.5 h): 7.25 ± 0.5 g
Mean (±SEM) von Frey Paw Withdrawal threshold following the 7th consecutive dose (tranilast 200 mg/kg oral twice-daily, time 0.75 h): 8.25 ± 0.25 g
Mean (±SEM) von Frey Paw Withdrawal threshold following the 7th consecutive dose (tranilast 200 mg/kg oral twice-daily, time 1 h): 8.75 ± 0.5 g
Mean (±SEM) von Frey Paw Withdrawal threshold following the 7th consecutive dose (tranilast 200 mg/kg oral twice-daily, time 1.25 h): 7.25 ± 0.25 g
Mean (±SEM) von Frey Paw Withdrawal threshold following the 7th consecutive dose (tranilast 200 mg/kg oral twice-daily, time 1.5 h): 7.0 ± 0.5 g
Mean (±SEM) von Frey Paw Withdrawal threshold following the 7th consecutive dose (tranilast 200 mg/kg oral twice-daily, time 2 h): 7.25 ± 0.25 g
Mean (±SEM) von Frey Paw Withdrawal threshold following the 7th consecutive dose (tranilast 200 mg/kg oral twice-daily, time 3 h): 6.0 ± 0 g
Mean (±SEM) AUC (area under the normalized PWT versus time curve) (tranilast 200 mg/kg oral): 5.75 ± 0.7
Mean (±SEM) Peak response (PWT) (tranilast 200 mg/kg oral): 8.75 ± 0.5
Mean (±SEM) % MPR at peak (tranilast 200 mg/kg oral): 62.6 ± 11.7%
Mean (±SEM) von Frey Paw Withdrawal threshold assessed prior to dose (tranilast 300 mg/kg oral twice-daily, prior to dose 1): 4.2 ± 0.6 g
Mean (±SEM) von Frey Paw Withdrawal threshold assessed prior to dose (tranilast 300 mg/kg oral twice-daily, prior to dose 3): 3.7 ± 0.8 g
Mean (±SEM) von Frey Paw Withdrawal threshold assessed prior to dose (tranilast 300 mg/kg oral twice-daily, prior to dose 5): 3.9 ± 0.7 g
Mean (±SEM) von Frey Paw Withdrawal threshold assessed prior to dose (tranilast 300 mg/kg oral twice-daily, prior to dose 7): 4.8 ± 0.6 g
Mean (±SEM) von Frey Paw Withdrawal threshold following the 7th consecutive dose (tranilast 300 mg/kg oral twice-daily, time 0 h (pre-dose)): 4.8 ± 0.5 g
Mean (±SEM) von Frey Paw Withdrawal threshold following the 7th consecutive dose (tranilast 300 mg/kg oral twice-daily, time 0 h (pre-dose), listed as tranilast): 4.8 (±0.5) g
Mean (±SEM) von Frey Paw Withdrawal threshold following the 7th consecutive dose (tranilast 300 mg/kg oral twice-daily, time 0.15 h): 5.4 ± 0.7 g
Mean (±SEM) von Frey Paw Withdrawal threshold following the 7th consecutive dose (tranilast 300 mg/kg oral twice-daily, time 0.5 h): 8.6 ± 1.5 g
Mean (±SEM) von Frey Paw Withdrawal threshold following the 7th consecutive dose (tranilast 300 mg/kg oral twice-daily, time 0.75 h): 11 ± 1.6 g
Mean (±SEM) von Frey Paw Withdrawal threshold following the 7th consecutive dose (tranilast 300 mg/kg oral twice-daily, time 1 h): 12.2 ± 1.3 g
Mean (±SEM) von Frey Paw Withdrawal threshold following the 7th consecutive dose (tranilast 300 mg/kg oral twice-daily, time 1.25 h): 13 ± 1.3 g
Mean (±SEM) von Frey Paw Withdrawal threshold following the 7th consecutive dose (tranilast 300 mg/kg oral twice-daily, time 1.25 h, listed as tranilast): 13.0 (±1.3) g
Mean (±SEM) von Frey Paw Withdrawal threshold following the 7th consecutive dose (tranilast 300 mg/kg oral twice-daily, time 1.5 h): 12.4 ± 1.1 g
Mean (±SEM) von Frey Paw Withdrawal threshold following the 7th consecutive dose (tranilast 300 mg/kg oral twice-daily, time 2 h): 12.0 ± 2.2 g
Mean (±SEM) von Frey Paw Withdrawal threshold following the 7th consecutive dose (tranilast 300 mg/kg oral twice-daily, time 3 h): 9.0 ± 2.7 g
Relief of tactile allodynia in the hindpaws (tranilast 300 mg/kg oral, 7 consecutive twice-daily doses (n=5)): significant relief of tactile allodynia
AUC of anti-allodynic response versus time compared with vehicle (tranilast 300 mg/kg oral, 7th consecutive twice-daily dose): significantly greater (p<0.05)
Mean duration of action (tranilast 300 mg/kg oral): > 3 h
Time of peak anti-allodynia post-dosing (tranilast 300 mg/kg oral): 1 to 1.5 h
Mean (±SEM) AUC (area under the normalized PWT versus time curve) (tranilast 300 mg/kg oral): 17.2 ± 3.3
Mean (±SEM) Peak response (PWT) (tranilast 300 mg/kg oral): 13.0 ± 1.3
Mean (±SEM) % MPR at peak (tranilast 300 mg/kg oral): 147.8 ± 23.6%
Mean (±SEM) von Frey Paw Withdrawal threshold assessed prior to dose (tranilast 400 mg/kg oral twice-daily, prior to dose 1): 5.1 ± 0.5 g
Mean (±SEM) von Frey Paw Withdrawal threshold assessed prior to dose (tranilast 400 mg/kg oral twice-daily, prior to dose 3): 5.1 ± 0.5 g
Mean (±SEM) von Frey Paw Withdrawal threshold assessed prior to dose (tranilast 400 mg/kg oral twice-daily, prior to dose 5): 4.8 ± 0.5 g
Mean (±SEM) von Frey Paw Withdrawal threshold assessed prior to dose (tranilast 400 mg/kg oral twice-daily, prior to dose 7): 5.2 ± 0.5 g
Mean (±SEM) von Frey Paw Withdrawal threshold following the 7th consecutive dose (tranilast 400 mg/kg oral twice-daily, time 0 h (pre-dose)): 5.2 ± 0.4 g
Mean (±SEM) von Frey Paw Withdrawal threshold following the 7th consecutive dose (tranilast 400 mg/kg oral twice-daily, time 0 h (pre-dose), listed as tranilast): 5.2 (±0.4) g
Mean (±SEM) von Frey Paw Withdrawal threshold following the 7th consecutive dose (tranilast 400 mg/kg oral twice-daily, time 0.15 h): 6.0 ± 0 g
Mean (±SEM) von Frey Paw Withdrawal threshold following the 7th consecutive dose (tranilast 400 mg/kg oral twice-daily, time 0.5 h): 6.25 ± 0.2 g
Mean (±SEM) von Frey Paw Withdrawal threshold following the 7th consecutive dose (tranilast 400 mg/kg oral twice-daily, time 0.75 h): 7.5 ± 0.5 g
Mean (±SEM) von Frey Paw Withdrawal threshold following the 7th consecutive dose (tranilast 400 mg/kg oral twice-daily, time 1 h): 8.75 ± 0.25 g
Mean (±SEM) von Frey Paw Withdrawal threshold following the 7th consecutive dose (tranilast 400 mg/kg oral twice-daily, time 1 h, listed as tranilast): 8.8 (±0.3) g
Mean (±SEM) von Frey Paw Withdrawal threshold following the 7th consecutive dose (tranilast 400 mg/kg oral twice-daily, time 1.25 h): 7.8 ± 0.25 g
Mean (±SEM) von Frey Paw Withdrawal threshold following the 7th consecutive dose (tranilast 400 mg/kg oral twice-daily, time 1.5 h): 8.0 ± 0 g
Mean (±SEM) von Frey Paw Withdrawal threshold following the 7th consecutive dose (tranilast 400 mg/kg oral twice-daily, time 2 h): 7.8 ± 0.25 g
Mean (±SEM) von Frey Paw Withdrawal threshold following the 7th consecutive dose (tranilast 400 mg/kg oral twice-daily, time 3 h): 6.5 ± 0.3 g
Mean duration of action (tranilast 400 mg/kg oral): 3 h
Time of peak anti-allodynia post-dosing (tranilast 400 mg/kg oral): 0.75 to 1.25 h
Mean (±SEM) AUC (area under the normalized PWT versus time curve) (tranilast 400 mg/kg oral): 6.3 ± 0.9
Mean (±SEM) Peak response (PWT) (tranilast 400 mg/kg oral): 8.75 ± 0.25
Mean (±SEM) % MPR at peak (tranilast 400 mg/kg oral): 62.2 ± 4.2%
Peak anti-allodynic response compared with vehicle [1]: significantly (p<0.05) greater
Relief of tactile allodynia in the hindpaws [1]: significant relief of tactile allodynia; also recorded: anti-allodynia was produced
% MPR at the time of peak effect compared with vehicle (tranilast 100, 200, 300 and 400 mg/kg oral, 7th consecutive twice-daily dose): significantly greater than that for vehicle
AUC of anti-allodynic response versus time compared with vehicle (tranilast 100, 200 and 400 mg/kg oral, 7th consecutive twice-daily dose): did not reach statistical significance
Dosing regimen producing the maximum anti-allodynic effect (tranilast 100-400 mg/kg oral, 7 consecutive twice-daily doses): maximum anti-allodynic effect appeared to be produced by the 300 mg/kg dosing regimen
Baseline PWT thresholds assessed prior to dose 1, 3, 5 and 7 (tranilast at all doses (100-400 mg/kg oral twice-daily)): not significantly different
